Measured values taken from ChEMBL document CHEMBL3217564, “The design and synthesis of 5- and 6-isoxazolylbenzimidazoles as selective inhibitors of the BET bromodomains” (Medchemcomm, 2013).

Experiments:
[1] = Inhibition of CBP (unknown origin) by AlphaScreen assay; parameters: species or system Homo sapiens
[2] = molecular target: T1, Bromodomain-containing protein 4 (Homo sapiens, UniProt O60885); assay: Inhibition of BRD4 bromodomain-1 (unknown origin) by AlphaScreen assay
[3] = molecular target: Protein polybromo-1 (Homo sapiens) (UniProt Q86U86); assay: Binding affinity to PB1-5 bromodomain (unknown origin) assessed as change in melting temperature at 10 uM by differential scanning fluorimetric analysis
[4] = molecular target: T1, Bromodomain-containing protein 4; assay: Binding affinity to BRD4 bromodomain-2 (unknown origin) assessed as change in melting temperature at 10 uM by differential scanning fluorimetric analysis
[5] = molecular target: T2, ATPase family AAA domain-containing protein 2 (Homo sapiens) (UniProt Q6PL18); assay: Binding affinity to ATAD2 bromodomain (unknown origin) assessed as change in melting temperature at 10 uM by differential scanning fluorimetric analysis
T2 sequence (whole entry): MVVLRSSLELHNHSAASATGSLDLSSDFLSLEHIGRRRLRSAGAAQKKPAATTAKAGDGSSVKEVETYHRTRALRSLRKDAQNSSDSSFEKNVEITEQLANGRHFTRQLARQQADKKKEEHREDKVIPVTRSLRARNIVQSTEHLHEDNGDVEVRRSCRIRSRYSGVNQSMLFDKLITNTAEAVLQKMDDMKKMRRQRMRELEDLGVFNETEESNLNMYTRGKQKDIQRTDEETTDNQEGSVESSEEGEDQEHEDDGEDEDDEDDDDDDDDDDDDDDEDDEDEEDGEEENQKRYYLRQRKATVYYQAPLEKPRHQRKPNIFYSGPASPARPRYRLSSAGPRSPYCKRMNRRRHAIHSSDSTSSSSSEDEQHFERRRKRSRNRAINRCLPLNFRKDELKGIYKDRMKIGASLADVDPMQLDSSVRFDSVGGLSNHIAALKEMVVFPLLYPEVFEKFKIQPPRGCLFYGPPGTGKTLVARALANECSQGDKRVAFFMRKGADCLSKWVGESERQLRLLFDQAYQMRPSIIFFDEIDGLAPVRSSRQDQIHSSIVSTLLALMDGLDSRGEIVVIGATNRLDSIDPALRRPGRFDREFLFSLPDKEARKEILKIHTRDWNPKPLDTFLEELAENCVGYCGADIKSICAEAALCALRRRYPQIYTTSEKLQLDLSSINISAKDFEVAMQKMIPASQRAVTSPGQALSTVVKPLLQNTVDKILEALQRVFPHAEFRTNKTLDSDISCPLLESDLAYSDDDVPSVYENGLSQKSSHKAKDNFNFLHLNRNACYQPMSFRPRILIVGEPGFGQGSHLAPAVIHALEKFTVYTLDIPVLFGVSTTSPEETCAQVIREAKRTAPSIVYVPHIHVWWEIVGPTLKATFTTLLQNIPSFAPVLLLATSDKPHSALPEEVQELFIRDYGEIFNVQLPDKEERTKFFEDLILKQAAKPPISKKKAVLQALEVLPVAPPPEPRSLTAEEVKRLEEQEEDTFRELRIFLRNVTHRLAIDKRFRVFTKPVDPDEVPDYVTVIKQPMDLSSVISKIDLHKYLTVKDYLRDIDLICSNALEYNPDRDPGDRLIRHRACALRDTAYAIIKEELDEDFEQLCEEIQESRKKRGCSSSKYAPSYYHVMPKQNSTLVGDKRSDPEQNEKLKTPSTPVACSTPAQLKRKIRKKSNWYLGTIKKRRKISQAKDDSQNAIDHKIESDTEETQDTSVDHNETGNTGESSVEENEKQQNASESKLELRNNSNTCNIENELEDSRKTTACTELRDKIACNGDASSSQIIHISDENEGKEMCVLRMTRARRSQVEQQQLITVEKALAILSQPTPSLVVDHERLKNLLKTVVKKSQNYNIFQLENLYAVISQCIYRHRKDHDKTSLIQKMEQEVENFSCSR

[6] = molecular target: Transcription initiation factor TFIID subunit 1 (Homo sapiens) (UniProt P21675); assay: Binding affinity to TAF1 bromodomain-2 (unknown origin) assessed as change in melting temperature at 10 uM by differential scanning fluorimetric analysis
[7] = molecular target: T3, Bromodomain-containing protein 9 (Homo sapiens) (UniProt Q9H8M2); assay: Binding affinity to BRD9 bromodomain (unknown origin) assessed as change in melting temperature at 10 uM by differential scanning fluorimetric analysis
T3 sequence (whole entry): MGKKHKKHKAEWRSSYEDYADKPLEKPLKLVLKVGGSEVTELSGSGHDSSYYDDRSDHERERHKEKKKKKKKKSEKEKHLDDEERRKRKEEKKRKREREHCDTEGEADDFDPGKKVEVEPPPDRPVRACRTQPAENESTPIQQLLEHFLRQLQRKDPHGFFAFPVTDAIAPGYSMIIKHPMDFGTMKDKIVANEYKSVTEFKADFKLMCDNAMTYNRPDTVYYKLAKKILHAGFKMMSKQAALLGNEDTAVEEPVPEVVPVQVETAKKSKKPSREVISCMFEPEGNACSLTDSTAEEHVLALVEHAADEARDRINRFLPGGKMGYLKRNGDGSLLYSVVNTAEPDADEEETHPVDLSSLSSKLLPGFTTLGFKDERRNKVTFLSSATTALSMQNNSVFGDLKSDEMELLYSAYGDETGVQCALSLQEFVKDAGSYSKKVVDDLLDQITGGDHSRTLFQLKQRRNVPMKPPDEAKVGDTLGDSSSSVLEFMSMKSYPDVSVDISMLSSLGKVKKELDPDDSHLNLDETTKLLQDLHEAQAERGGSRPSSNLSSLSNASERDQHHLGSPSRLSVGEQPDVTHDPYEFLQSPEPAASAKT

[8] = molecular target: T4, Transcription intermediary factor 1-alpha (Homo sapiens) (UniProt O15164); assay: Binding affinity to TIF1alpha bromodomain (unknown origin) assessed as change in melting temperature at 10 uM by differential scanning fluorimetric analysis
T4 sequence (whole entry): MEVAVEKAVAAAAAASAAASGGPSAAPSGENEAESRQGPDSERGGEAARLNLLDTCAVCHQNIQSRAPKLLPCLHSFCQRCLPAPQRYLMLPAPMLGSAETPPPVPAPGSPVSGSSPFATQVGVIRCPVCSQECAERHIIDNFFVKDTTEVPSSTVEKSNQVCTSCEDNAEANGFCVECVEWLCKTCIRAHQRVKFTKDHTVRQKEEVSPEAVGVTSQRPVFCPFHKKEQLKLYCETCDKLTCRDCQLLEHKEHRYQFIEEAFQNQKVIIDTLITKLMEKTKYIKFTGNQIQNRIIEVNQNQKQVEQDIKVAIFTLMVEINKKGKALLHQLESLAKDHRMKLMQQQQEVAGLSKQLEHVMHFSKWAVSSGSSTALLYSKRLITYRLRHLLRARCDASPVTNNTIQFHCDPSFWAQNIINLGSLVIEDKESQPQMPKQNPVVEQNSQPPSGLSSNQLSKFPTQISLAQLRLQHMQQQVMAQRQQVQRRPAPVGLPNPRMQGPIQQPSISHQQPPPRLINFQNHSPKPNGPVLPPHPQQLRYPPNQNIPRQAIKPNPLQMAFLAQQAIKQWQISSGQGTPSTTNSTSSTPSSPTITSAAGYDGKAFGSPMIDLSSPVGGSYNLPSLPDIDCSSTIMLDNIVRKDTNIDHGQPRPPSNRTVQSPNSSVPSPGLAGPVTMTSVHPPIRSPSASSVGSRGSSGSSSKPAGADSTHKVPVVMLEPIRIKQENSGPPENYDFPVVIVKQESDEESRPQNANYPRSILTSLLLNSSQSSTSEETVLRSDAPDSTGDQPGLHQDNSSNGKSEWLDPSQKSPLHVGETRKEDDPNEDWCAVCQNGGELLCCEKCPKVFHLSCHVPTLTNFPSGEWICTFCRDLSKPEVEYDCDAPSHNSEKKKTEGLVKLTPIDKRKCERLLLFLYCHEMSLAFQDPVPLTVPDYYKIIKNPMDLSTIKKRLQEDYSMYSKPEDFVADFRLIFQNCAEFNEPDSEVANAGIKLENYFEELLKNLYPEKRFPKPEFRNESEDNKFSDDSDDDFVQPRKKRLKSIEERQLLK

[9] = molecular target: PH-interacting protein (Homo sapiens) (UniProt Q8WWQ0); assay: Binding affinity to PHIP bromodomain-2 (unknown origin) assessed as change in melting temperature at 10 uM by differential scanning fluorimetric analysis
Homo sapiens [10] = species on record: Homo sapiens; assay: Binding affinity to CBP (unknown origin) assessed as change in melting temperature at 10 uM by differential scanning fluorimetric analysis
Homo sapiens [11] = species on record: Homo sapiens; assay: Selectivity ratio of IC50 for BRD4 bromodomain-1 (unknown origin) to IC50 for CBP (unknown origin)
[12] = molecular target: Histone acetyltransferase KAT2B (Homo sapiens) (UniProt Q92831); assay: Binding affinity to PCAF bromodomain (unknown origin) assessed as change in melting temperature at 10 uM by differential scanning fluorimetric analysis
Chain of Histone acetyltransferase KAT2B (Homo sapiens) (Q92831 whole entry, looked up): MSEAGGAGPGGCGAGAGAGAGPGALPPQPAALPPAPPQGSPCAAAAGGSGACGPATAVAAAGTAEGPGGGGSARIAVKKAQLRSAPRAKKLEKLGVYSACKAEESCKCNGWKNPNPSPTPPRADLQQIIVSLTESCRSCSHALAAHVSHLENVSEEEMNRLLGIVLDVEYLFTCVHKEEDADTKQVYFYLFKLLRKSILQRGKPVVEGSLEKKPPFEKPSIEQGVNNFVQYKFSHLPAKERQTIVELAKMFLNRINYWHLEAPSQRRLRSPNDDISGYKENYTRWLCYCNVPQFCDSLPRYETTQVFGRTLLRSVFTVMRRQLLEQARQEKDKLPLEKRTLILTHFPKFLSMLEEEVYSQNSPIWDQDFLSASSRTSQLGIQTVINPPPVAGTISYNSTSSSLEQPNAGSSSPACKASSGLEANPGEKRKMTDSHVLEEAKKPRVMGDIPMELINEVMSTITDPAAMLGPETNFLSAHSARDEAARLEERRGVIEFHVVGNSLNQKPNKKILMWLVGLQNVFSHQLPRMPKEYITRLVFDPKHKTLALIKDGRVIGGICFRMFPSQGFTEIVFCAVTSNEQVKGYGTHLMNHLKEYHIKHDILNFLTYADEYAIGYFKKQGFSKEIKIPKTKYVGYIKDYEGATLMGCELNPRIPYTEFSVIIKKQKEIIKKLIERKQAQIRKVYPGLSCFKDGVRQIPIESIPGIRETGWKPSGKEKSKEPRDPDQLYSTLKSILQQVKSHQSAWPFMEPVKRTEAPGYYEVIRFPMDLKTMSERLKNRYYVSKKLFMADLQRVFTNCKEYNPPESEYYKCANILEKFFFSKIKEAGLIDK

Chain of Transcription initiation factor TFIID subunit 1 (Homo sapiens) (P21675 whole entry): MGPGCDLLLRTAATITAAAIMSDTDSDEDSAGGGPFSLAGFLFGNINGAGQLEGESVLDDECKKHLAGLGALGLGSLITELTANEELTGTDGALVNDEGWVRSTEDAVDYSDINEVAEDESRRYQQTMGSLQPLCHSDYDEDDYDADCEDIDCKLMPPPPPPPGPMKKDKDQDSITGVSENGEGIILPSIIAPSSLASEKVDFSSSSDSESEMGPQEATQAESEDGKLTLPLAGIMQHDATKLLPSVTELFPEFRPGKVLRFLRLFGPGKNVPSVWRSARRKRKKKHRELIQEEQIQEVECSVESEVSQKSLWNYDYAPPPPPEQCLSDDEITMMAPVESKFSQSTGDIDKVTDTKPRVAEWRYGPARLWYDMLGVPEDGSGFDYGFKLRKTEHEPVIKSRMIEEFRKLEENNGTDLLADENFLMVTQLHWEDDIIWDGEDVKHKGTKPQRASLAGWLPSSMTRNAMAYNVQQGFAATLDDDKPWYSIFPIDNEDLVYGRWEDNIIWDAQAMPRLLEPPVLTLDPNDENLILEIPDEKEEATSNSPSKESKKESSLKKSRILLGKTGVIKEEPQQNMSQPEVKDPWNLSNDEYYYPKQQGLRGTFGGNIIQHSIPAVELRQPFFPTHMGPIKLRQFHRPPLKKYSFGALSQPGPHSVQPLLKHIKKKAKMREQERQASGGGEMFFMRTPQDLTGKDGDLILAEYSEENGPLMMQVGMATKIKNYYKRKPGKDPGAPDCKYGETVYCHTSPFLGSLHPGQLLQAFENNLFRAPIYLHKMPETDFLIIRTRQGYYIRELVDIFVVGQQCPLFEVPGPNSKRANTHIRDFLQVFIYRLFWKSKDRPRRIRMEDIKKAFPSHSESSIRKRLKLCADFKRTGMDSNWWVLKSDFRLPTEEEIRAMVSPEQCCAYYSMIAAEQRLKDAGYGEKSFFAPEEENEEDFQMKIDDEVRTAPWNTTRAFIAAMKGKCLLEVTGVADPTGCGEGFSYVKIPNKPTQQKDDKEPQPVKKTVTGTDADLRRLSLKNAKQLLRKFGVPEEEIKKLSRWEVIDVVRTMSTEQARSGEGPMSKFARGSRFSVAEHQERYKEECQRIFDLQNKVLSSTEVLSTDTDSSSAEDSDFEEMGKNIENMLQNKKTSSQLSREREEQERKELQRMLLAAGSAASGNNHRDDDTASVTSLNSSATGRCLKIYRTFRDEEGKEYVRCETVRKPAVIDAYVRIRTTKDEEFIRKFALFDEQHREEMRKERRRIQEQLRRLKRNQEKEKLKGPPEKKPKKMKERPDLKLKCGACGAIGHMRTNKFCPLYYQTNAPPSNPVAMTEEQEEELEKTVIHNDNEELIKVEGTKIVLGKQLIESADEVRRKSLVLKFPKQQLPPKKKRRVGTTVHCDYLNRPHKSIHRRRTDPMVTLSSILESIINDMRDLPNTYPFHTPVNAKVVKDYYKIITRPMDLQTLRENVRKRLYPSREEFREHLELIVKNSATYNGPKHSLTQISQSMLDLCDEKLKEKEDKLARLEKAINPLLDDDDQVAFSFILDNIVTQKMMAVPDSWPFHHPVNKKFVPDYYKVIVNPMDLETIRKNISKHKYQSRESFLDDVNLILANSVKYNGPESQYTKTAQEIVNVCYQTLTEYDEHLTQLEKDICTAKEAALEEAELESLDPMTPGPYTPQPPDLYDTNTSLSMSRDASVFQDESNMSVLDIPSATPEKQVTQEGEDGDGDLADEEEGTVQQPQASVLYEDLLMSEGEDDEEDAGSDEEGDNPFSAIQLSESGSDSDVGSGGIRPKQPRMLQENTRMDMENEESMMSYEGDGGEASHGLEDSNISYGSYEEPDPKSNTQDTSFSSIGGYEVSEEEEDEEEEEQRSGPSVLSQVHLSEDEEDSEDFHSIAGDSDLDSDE
Chain of Protein polybromo-1 (Homo sapiens) (Q86U86 whole entry): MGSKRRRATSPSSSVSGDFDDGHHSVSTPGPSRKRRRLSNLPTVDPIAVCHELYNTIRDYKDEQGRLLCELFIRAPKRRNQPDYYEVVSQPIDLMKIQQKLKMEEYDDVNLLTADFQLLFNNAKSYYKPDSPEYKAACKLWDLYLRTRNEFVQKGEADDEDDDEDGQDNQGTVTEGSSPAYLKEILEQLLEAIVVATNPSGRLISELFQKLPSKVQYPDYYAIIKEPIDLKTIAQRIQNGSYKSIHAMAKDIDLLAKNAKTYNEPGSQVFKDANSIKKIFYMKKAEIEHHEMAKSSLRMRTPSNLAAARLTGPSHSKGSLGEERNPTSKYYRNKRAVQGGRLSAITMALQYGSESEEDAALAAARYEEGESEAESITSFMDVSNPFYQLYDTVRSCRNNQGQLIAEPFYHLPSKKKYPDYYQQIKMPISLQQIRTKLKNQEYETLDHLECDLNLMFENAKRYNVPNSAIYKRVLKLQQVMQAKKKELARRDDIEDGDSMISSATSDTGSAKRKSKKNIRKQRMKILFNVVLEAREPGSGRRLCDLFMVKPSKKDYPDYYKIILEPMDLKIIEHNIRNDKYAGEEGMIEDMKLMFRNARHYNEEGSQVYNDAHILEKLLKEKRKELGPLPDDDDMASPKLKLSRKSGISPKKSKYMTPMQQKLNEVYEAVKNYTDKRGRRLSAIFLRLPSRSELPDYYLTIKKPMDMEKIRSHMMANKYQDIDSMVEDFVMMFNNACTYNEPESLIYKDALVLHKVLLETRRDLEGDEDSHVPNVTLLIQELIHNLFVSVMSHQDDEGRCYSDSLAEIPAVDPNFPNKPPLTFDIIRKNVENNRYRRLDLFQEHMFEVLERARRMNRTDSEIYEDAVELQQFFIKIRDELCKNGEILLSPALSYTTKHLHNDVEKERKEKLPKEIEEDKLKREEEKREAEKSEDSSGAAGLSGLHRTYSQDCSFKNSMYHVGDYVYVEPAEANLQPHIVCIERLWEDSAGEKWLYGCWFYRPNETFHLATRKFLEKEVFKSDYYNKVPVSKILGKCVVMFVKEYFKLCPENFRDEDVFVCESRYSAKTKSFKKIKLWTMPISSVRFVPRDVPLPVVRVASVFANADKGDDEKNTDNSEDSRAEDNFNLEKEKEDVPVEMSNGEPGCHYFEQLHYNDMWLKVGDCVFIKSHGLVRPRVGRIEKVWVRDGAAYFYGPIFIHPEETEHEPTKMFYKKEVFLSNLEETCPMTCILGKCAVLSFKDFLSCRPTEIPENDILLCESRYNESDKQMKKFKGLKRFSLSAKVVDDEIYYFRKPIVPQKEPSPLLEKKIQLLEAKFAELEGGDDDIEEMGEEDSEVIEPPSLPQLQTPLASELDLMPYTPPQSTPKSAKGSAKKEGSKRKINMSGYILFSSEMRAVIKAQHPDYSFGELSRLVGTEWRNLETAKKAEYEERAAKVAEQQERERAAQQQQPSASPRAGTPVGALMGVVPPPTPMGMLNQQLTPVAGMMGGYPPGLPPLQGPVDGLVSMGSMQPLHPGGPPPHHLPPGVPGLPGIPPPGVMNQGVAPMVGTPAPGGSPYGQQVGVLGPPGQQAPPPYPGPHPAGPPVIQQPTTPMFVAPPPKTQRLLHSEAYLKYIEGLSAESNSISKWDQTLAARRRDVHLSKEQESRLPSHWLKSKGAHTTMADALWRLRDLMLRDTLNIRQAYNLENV

| pIC50 [1] | IC50 ([2]; read-out: pIC50 (converted)) [nM] | SMILES | further results |
| --- | --- | --- | --- |
| < 5 | 794 | Cc1noc(C)c1-c1ccc2ncn(Cc3ccccc3Cl)c2c1 |  |
| 5.9 | 10000 | Cc1noc(C)c1-c1ccc2c(c1)ncn2Cc1ccc(Cl)c(Cl)c1 |  |
| 4.9 | 631 | Cc1noc(C)c1-c1ccc2ncn(Cc3cccc(F)c3)c2c1 |  |
| 4.6 | 1580 | COc1ccc(Cn2c(C)nc3ccc(-c4c(C)noc4C)cc32)cc1 |  |
|  | 20000 | Cc1noc(C)c1-c1ccc2c(c1)C(OCc1ccc3ccccc3n1)CC2 (racemic) |  |
| 4.8 | 12600 | Cc1noc(C)c1-c1ccc2c(c1)ncn2Cc1ccccc1[N+](=O)[O-] |  |
|  | 3980 | Cc1noc(C)c1-c1ccc2c(c1)C(OCCCN1CCNCC1)CC2 (racemic) |  |
|  | 6310 | Cc1noc(C)c1-c1ccc2c(c1)C(OCCCN1CCOCC1)CC2 (racemic) |  |
| < 5 | 20000 | Cc1noc(C)c1-c1ccc2cc[nH]c2c1 |  |
| 5.7 | 2510 | Cc1noc(C)c1-c1ccc2c(c1)ncn2Cc1ccc(Cl)cc1 |  |
| < 4 | 3980 | Cc1noc(C)c1-c1ccc2ncn(Cc3ccc(Cl)c(Cl)c3)c2c1 |  |
| 5.6 | 1580 | Cc1noc(C)c1-c1ccc2c(c1)ncn2Cc1cccc(Br)c1 |  |
| < 4 | 631 | Cc1noc(C)c1-c1ccc2ncn(Cc3ccccc3[N+](=O)[O-])c2c1 |  |
| 4.7 | 1260 | Cc1noc(C)c1-c1ccc2ncn(Cc3cccc(Cl)c3)c2c1 |  |
| 5.2 | 2000 | Cc1noc(C)c1-c1ccc2ncn(Cc3ccc(C(=O)N(C)C)cc3)c2c1 |  |
| < 4 | 200 | Cc1noc(C)c1-c1ccc2ncn(Cc3ccc(C#N)cc3)c2c1 | ΔTm [3]: -0.1 °C; ΔTm [4]: 3.2 °C; ΔTm [5]: -0.1 °C; ΔTm [6]: 0 °C; ΔTm [7]: 0.1 °C; ΔTm [8]: -0.2 °C; IC50 ([2]; read-out: IC50): 180 nM; ΔTm [9]: -0.4 °C; ΔTm (Homo sapiens [10]): 1.1 °C; Ratio IC50 (Homo sapiens [11]): 100; ΔTm [12]: -0.2 °C |
| < 5 | 1000 | Cc1noc(C)c1-c1ccc2ncn(Cc3cccc(Br)c3)c2c1 |  |
| 5.4 | 6310 | Cc1noc(C)c1-c1ccc2nc[nH]c2c1 |  |
|  | 6310 | Cc1noc(C)c1-c1ccc2c(c1)C(OCCCN1CCCC1)CC2 (racemic) |  |
| 5.9 | 1000 | Cc1noc(C)c1-c1ccc2ncn(Cc3ccccc3C#N)c2c1 |  |
| 4.7 | 1260 | Cc1noc(C)c1-c1ccc2c(c1)C(O)(c1ccccc1)CC2 (racemic) |  |
|  | 31600 | Cc1noc(C)c1-c1ccc2c(c1)C(OCc1ccccc1)CC2 (racemic) |  |
| 5.1 | 2000 | Cc1noc(C)c1-c1ccc2c(c1)nc(C)n2Cc1ccc(O)cc1 |  |
| < 5 | 794 | COc1ccc(Cn2cnc3ccc(-c4c(C)noc4C)cc32)cc1 |  |
| < 4 | 1260 | COC(=O)c1ccc(Cn2cnc3ccc(-c4c(C)noc4C)cc32)cc1 |  |
|  | 6310 | Cc1noc(C)c1-c1ccc2c(c1)C(OCCCN1CCCCC1)CC2 (racemic) |  |
| 5.2 | 631 | Cc1noc(C)c1-c1ccc2ncn(Cc3cccc(C(=O)N(C)C)c3)c2c1 |  |
| < 4.6 | 63100 | Cc1noc(C)c1-c1ccc2c(c1)C(=O)CC2 |  |
